Experimental data as given in ChEMBL document CHEMBL2331273 (Bioorg Med Chem Lett, 2013).
Active and inactive are the calls of the source. No cut-off for these calls is given here.

Columns and labels:
[1] = molecular target: Beta-2 adrenergic receptor (Cavia porcellus, UniProt Q8K4Z4); test: Agonist activity at beta2-adrenoceptor in guinea pig trachea assessed as relaxation of histamine-induced precontracted tracheal rings
[2] = molecular target: 3',5'-cyclic-AMP phosphodiesterase 4B (Homo sapiens, UniProt Q07343); test: Inhibition of human recombinant PDE4B2 assessed as decrease in cAMP hydrolysis preincubated with substrate prior to enzyme addition measured after 30 mins by colorimetric assay method
Chain of 3',5'-cyclic-AMP phosphodiesterase 4B (Q07343 whole entry): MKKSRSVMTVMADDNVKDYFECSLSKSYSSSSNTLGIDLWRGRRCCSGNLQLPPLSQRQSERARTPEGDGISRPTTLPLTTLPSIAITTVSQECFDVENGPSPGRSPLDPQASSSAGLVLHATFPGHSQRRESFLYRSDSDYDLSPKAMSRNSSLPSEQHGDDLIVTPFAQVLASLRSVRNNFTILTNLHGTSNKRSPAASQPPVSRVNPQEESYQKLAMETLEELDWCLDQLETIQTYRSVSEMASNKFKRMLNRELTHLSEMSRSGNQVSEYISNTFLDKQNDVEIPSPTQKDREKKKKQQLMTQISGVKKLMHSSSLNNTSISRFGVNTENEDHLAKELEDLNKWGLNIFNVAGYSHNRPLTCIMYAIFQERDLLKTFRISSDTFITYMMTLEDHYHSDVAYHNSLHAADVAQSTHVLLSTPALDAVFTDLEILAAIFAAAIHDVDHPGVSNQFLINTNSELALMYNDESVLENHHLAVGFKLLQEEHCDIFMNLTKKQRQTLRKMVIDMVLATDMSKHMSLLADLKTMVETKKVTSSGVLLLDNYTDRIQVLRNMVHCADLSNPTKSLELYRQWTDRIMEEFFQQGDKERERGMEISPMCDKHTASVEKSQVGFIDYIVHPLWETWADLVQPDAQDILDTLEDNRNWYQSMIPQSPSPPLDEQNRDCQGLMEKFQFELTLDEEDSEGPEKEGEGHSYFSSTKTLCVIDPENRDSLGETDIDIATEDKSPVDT

[3] = molecular target: Beta-2 adrenergic receptor (Cavia porcellus) (UniProt Q8K4Z4); test: Agonist activity at beta2-adrenoceptor in guinea pig trachea assessed as relaxation of histamine-induced precontracted tracheal rings treated 10 mins after histamine and beta2-adrenoceptor antagonist, ICI 118,551 addition
Chain of Beta-2 adrenergic receptor (Cavia porcellus) (Q8K4Z4 whole entry, looked up): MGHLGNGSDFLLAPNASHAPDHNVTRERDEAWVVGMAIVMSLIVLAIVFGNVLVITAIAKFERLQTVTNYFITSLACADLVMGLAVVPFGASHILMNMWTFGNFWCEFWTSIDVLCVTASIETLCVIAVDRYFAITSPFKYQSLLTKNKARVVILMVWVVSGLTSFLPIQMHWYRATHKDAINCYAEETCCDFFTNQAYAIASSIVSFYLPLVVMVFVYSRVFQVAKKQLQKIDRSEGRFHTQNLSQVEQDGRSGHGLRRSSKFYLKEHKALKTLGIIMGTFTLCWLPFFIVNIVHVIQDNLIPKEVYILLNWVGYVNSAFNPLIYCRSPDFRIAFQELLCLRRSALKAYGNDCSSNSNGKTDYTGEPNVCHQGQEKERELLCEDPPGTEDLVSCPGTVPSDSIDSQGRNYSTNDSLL

Chain of Beta-2 adrenergic receptor (Q8K4Z4 whole entry): as the sequence (Q8K4Z4 whole entry, looked up) above

Structure (SMILES) | EC50 [1] | IC50 [2] | Activity [3]
COc1ccc(C2=NN(CCCCCNCC(O)c3ccc(O)c(CO)c3)C(=O)C3CCCCC23)cc1OC (centres undefined) | 0.832 nM | 271 nM | 
COc1ccc(C2=NN(CCNCC(O)c3ccc(O)c(CO)c3)C(=O)C3CCCCC23)cc1OC (centres undefined) | 0.646 nM | 282 nM | 
COc1ccc(C(=O)Nc2c(Cl)cncc2Cl)cc1OCCCCCCNCC(O)c1ccc(O)c(CO)c1 (centres undefined) | 3.16 nM | 235 nM | inactive
COc1ccc(C(=O)Nc2c(Cl)cncc2Cl)cc1OCCCNCC(O)c1ccc(O)c(CO)c1 (centres undefined) | 3.39 nM | 1090 nM | 
COc1ccc(C2=NN(CCCCNCC(O)c3ccc(O)c(CO)c3)C(=O)C3CCCCC23)cc1OC (centres undefined) | 0.676 nM | 278 nM | 
COc1ccc(C(=O)Nc2c(Cl)cncc2Cl)cc1OCCCCCNCC(O)c1ccc(O)c(CO)c1 (centres undefined) | 1.95 nM | 394 nM | 
COc1ccc(C2=NN(CCCCCCNCC(O)c3ccc(O)c(CO)c3)C(=O)C3CCCCC23)cc1OC (centres undefined) | 0.631 nM | 263 nM | inactive
COc1ccc(C(=O)Nc2c(Cl)cncc2Cl)cc1OCCCCNCC(O)c1ccc(O)c(CO)c1 (centres undefined) | 2.82 nM | 601 nM | 
CC(C)NCC(O)c1ccc(O)c(O)c1 (centres undefined) [ISOPROTERENOL] | 28.8 nM |  | 
